# Experiment: Comparative ex vivo study of the percutaneous absorption of amitriptyline (Frantz cell)
# Format: in vitro ADME
# Conditions: human skin ex vivo, compositions with 10% amitriptyline hydrochloride
# Procedure: Comparative ex vivo study of the percutaneous absorption of amitriptyline in a formulation A in aqueous gel form (invention) and in a formulation B in cream form (comparative). Each of compositions A and B was applied on separate human skin samples. For each composition, the experiment was repeated 3 times with 3 skin samples from 3 different donors, i.e., 9 samples. The skin samples are mounted in a Frantz cell and are heated to a surface temperature of 32° C.±1° C. Composition A or B is spread evenly using a spatula on each skin sample at a rate of 10 mg per cell, corresponding to 5 mg/cm^2 of skin. The skin samples are rinsed 16 hours after application. Each skin sample was placed with a tweezers on a paper towel (dermis facing downward). The stratum corneum is removed using adhesive strips. After removing the stratum corneum, the sample is perforated. The epidermis is then separated from the dermis. Each of them is placed in separate bottles. The different samples were then extracted.
structure (smiles),measurement,value
"CN(C)CCC=C1c2ccccc2CCc2ccccc21 [amitriptyline, Amitriptyline]",systemic passage of amitriptyline,less than 0.1 % of the administered dose

# Reference: US20230103462A1, “TOPICAL PHARMACEUTICAL COMPOSITION IN GEL FORM COMPRISING AT LEAST AMITRIPTYLINE FOR USE IN THE TREATMENT OF NEUROPATHIC PHANTOM LIMB PAIN” (priority 2021, published 2023)
